Test system: phosphorylation of c-Jun at Ser63 in HEKa cells
Assay: UVB-induced c-Jun Ser63 phosphorylation in HEKa keratinocytes (Western immunoblotting)
Type: cell-based, Human
Settings: HEKa cells from four donors; 50 mJ/cm^2 UVB; Compound 1 added 1 hour before and kept 30 minutes after irradiation; nuclear extract, Western blot (FIGS. 1-5)
Procedure: Adult Normal Human […] Keratinocytes (HEKa) were obtained from ScienCell. Cells were plated in 10 cm dishes and incubated to allow attachment and then serum starved overnight. Compound 1 was added 1 hour before the cells were irradiated with 50 mJ/cm^2 UVB. Cells were incubated with Compound 1 for an additional 30 minutes after UVB irradiation. Cells were then lysed and nuclear and cytoplasmic proteins were isolated using the Nuclear Extraction kit by Active Motif. Protein was run on 10% tris glycine gels and transferred to nitrocellulose membranes. Blots were blocked for 1 hour. Total and phosphorylated c-Jun primary antibodies were added and incubated overnight. Licor secondary antibodies were added and blots were read on the Li-Cor Odyssey. 1-5. There was increased phosphorylation of c-Jun at Ser63 with 50 mJ/cm^2 UVB radiation, and inhibition by Compound 1 (FIGS. 1-5). There was also good separation of the nuclear and cytoplasmic proteins (c-Jun is only in the nucleus) (FIGS. 1-4).

## C[C@@H]1CC[C@@H](Nc2nc(NC(C)(C)C)ncc2C(N)=O)C[C@H]1O [Compound 1, 2-(tert-butylamino)-4-((1R,3R,4R)-3-hydroxy-4-methylcyclohexylamino)-pyrimidine-5-carboxamide]
  inhibition of phosphorylation of c-Jun at Ser63 induced by UVB radiation: inhibits c-Jun phosphorylation at Ser63 in a dose dependent manor
